{"source": "paper PMC10035370", "about": "“Targeting Tumor Angiogenesis with the Selective VEGFR-3 Inhibitor EVT801 in Combination with Cancer Immunotherapy” (Cancer Research Communications, 2022)", "key": {"VEGFR-3": {"target": "T1, VEGFR-3 (Mus musculus, UniProt P35917)", "T1 construct": "expressed in transfected cells; host or cells: HEK293T (inferred from the general description of the cellular assay)", "T1 sequence (P35917 25-1363)": "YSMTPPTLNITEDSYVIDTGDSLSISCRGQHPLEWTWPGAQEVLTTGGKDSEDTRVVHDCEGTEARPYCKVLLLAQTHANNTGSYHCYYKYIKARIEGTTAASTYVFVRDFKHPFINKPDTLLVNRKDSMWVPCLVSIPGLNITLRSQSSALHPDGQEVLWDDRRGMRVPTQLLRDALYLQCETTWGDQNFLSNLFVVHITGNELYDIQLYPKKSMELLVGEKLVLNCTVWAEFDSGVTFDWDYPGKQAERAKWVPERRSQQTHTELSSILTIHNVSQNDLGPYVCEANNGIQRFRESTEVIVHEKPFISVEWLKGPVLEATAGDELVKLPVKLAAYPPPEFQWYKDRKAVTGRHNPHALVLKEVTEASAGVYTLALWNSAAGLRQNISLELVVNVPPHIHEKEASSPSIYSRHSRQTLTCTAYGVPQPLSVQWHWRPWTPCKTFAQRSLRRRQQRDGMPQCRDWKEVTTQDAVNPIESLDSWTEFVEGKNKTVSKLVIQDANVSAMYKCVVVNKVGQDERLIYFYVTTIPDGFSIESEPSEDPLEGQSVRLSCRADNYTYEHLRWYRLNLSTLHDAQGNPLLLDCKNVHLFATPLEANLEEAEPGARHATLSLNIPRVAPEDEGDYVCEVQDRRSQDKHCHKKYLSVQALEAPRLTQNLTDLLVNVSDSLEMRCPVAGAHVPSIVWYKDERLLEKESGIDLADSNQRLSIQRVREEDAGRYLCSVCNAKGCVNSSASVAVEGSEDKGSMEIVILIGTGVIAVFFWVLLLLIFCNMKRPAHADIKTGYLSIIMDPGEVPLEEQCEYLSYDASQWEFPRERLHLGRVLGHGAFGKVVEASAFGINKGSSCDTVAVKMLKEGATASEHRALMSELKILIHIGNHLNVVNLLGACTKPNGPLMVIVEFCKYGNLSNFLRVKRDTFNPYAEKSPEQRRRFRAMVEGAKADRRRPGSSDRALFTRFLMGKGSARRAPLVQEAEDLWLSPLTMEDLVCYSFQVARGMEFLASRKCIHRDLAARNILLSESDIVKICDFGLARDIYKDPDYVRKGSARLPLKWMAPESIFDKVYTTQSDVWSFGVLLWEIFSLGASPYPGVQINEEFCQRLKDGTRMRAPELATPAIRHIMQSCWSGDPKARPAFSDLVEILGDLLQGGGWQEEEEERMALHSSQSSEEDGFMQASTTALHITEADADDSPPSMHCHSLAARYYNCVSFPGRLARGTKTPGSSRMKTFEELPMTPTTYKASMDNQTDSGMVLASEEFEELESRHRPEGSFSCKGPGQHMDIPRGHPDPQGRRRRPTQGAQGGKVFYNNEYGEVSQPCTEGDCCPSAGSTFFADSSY", "experiment": "Cellular VEGFR-3 autophosphorylation assay, mouse receptor", "assay_type": "cell-based", "details": "read-out: IC50 in cellular assays, VEGFR-3 autophosphorylation, mouse receptor", "procedure": "Transfection of HEK293T cells and Ba/F3 cells with VEGFR-1-Flag, VEGFR-2-Flag or VEGFR-3-Flag expression constructs was performed using Fugene-6 (Roche) as per manufacturer’s protocol. Briefly, Fugene-6 was pre-incubated with Opti-Mem (Gibco) before adding DNA. After 24 h, media was replaced with serum-free culture media containing 0.2 % BSA. On the next day, cells were incubated for 1 h in 1 mM orthovanadate, harvested, dissociated and distributed at 4 x 10^5 cells in 5 mL for HEK-VEGFR-1 and HEK-VEGFR-3, and 5 x 10^4 cells per 5 mL for HEK VEGFR-2 in the presence of EVT801 or SAR401849. After 30 min, the reaction was stopped by the addition of cold PBS supplemented with 1 mM orthovanadate. Cells were then lysed with 150 μl of RIPA buffer for 15 min at 4°C, then centrifuged for 10 min at 10,000 g. Supernatants (75 μl) were distributed in duplicate on 96 well plates that were precoated with the anti-flag, and left for 1 h at room temperature. After 3 washes, the anti-phosphotyrosine conjugated to the HRP was added and incubated for 1 h at room temperature. Wells were then washed 3 times with TBS buffer containing 0.5 % Tween-20 and 2 mM MgCl2. The reaction was stopped with 50 μL of 2 N H2SO4, and the signal was read with Envision at the wavelengths of 485 nm and 530 nm."}, "4T1 tumors [1]": {"system": "4T1 tumors", "experiment": "4T1 mammary carcinoma mouse model, with anti-CTLA-4", "assay_type": "in vivo, mice", "procedure": "(§1) The 4T1 mammary carcinoma mouse models were used as reported previously ([26]). Briefly, 1 × 10^5 4T1 cells were implanted into mammary fat pads of BALB/c mice. […] Tumors were measured two to three times weekly with calipers. The tumor volume (V) was calculated using the formula V = 0.52 × a^2 × b (a: smallest tumor diameter; b: largest tumor diameter). The tumors, lungs, and axillary lymph nodes were removed at day 21 for treatment with anti-PD-1, and day 28 for treatment with anti-CTLA-4. The tumors and the lungs were embedded in paraffin for histology studies. Intraperitoneal injection (10 mg/kg of antibody diluted at 1 mg/mL) was performed at day 6, day 11, and day 16 for treatment with anti-PD-1, and at day 6, day 11, day 16, and day 21 for treatment with anti-CTL-4 by using a 26G needle fitted to a plastic syringe in the right lower quarter of mice abdomen. The metastatic scoring was determined as follows: (0) no metastasis; ([1]) 1 to 20 metastases < 50 μm; ([2]) between 21 and 50 metastases < 50 μm; ([3]) 1 or more metastases > […]; ([4]) 1 or more metastases > […].\nWhole blood samples were treated twice with ACK lysing buffer (Thermo Fisher Scientific, A1049201) to lyse red blood cells. Cell suspension were incubated for 15 minutes on ice in blocking buffer (FACS buffer: PBS 1 X, 1% FBS, 5 mmol/L Ethylene Diamine Tetra acetic Acid (EDTA) containing 3% rat serum, 3% mouse serum, 1:660 FC blocking antibody). Cell suspension were stained with an antibody mix either for myeloid-derived suppressor cell (MDSC) staining [anti-CD45 PE-Vio770 (Miltenyi Biotec, 130-110-799), anti-CD11b APC (eBioscience, 17-0112-82), anti-Ly6C AF700 (BD, 561237), anti-Ly6G BV421 (BD, 562737), anti-F4/80 BV510 (BD, 743280), anti-IA/I-E (MHCII), PercpCy5.5 (BD, 562363), anti-CD124 PE (BioLegend, 144804) or anti-rat IgG2bPE (Ozyme, BLE400608) isotype control, and the green fluorescent reactive dye (Thermo Fisher Scientific, L34960)], or for T-cell staining [anti-CD45 PE-Vio770 (Miltenyi Biotec, 130-110-799), anti-Thy1 APC-Cy7 (BioLegend, 105328), anti-CD4 PercpVio-700 (Miltenyi Biotec, 130-109-497), anti-CD8 BV510 (BD, 563068), anti-CD69 BV421 (BD 562920) or anti-rat IgG1a-BV421 (BD, 562919), and the green fluorescent reactive dye (Thermo Fisher Scientific, L34960)]. After incubation for 30 minutes at 4°C in the dark, cells were washed and suspended in FACS buffer. A total of 50 μL of CountBright Absolute counting beads (Thermo Fisher Scientific, C36950) were added just before cell acquisition on a FACS Fortessa X20 (Becton Dickinson). Analysis was performed with the FlowJo software. For calculation of cell concentration, the following formula was used: Concentration of cells/μL = (number of cell events/number of bead events) × (assigned bead count of the lot/volume of analyzed sample). Monocytic MDSCs (M-MDSC) were characterized as MHC-II^neg/CD11b^+/Ly6C^+/Ly6G^neg, whereas polymorphonuclear MDSCs (PMN-MDSC) were characterized as MHC-II^neg/CD11b^+/Ly6C^neg/Ly6G^+, as described previously ([31]). Among those populations, CD124^+ cells were considered as the activated subpopulations ([32]).\nBlood was centrifuged at 8,000 rpm, for 5 minutes, at 4°C and the plasma was collected by harvesting the supernatant and stored at −80°C. Plasma samples were thawed at 4°C extemporaneously for MesoScale Discovery (MSD) analysis on a U-PLEX-4 Assay coated plate (U-PLEX Mouse KC, U-PLEX Mouse MIP-1α/CCL3, U-PLEX Mouse MIP-1β/CCL4, U-PLEX Mouse Rantes/CCL5 K15069L-1, Meso Scale Discovery). Analysis was performed following manufacturer's instructions."}, "4T1 tumors [2]": {"system": "4T1 tumors", "experiment": "4T1 mammary carcinoma mouse model, with anti-PD-1", "assay_type": "in vivo, mice", "procedure": "as §1, with “Intraperitoneal injection (10 mg/kg of antibody diluted at 1 mg/mL) was performed at day 6, day 11, and day 16 for treatment with anti-PD-1, and at day 6, day 11, day 16, and day 21 for treatment with anti-CTL-4 by using a 26G needle fitted to a plastic syringe in the right lower quarter of mice abdomen.” left out"}, "[3]": {"details": "endpoint, 30 mg/kg twice per day"}}}
{"smiles": "CCn1c(N)c(-c2ncc[nH]2)c(=O)c2ccc(C#C[C@@](C)(O)COC)nc21", "note": "[EVT801]", "values": [{"measurement": "IC50", "setting": "VEGFR-3", "result": 151, "unit": "nM"}, {"measurement": "reduction in circulation of each activated (CD124+) MDSC subpopulation (PMN-MDSCs, M-MDSCs) in the blood", "setting": "4T1 tumors [1]; 14 hours after the last dosing", "result": 2, "unit": "fold"}, {"measurement": "increase in number of circulating CD8+ T cells", "setting": "4T1 tumors [1]; endpoint", "result": 30, "unit": "%"}, {"measurement": "change in circulating CCL4 levels", "setting": "4T1 tumors [1]; [3]", "result": "−50", "unit": "%"}, {"measurement": "change in circulating CCL5 levels", "setting": "4T1 tumors [1]; [3]", "result": "−30", "unit": "%"}, {"measurement": "circulating CCL3 levels", "setting": "4T1 tumors [1]; [3]", "result": "unchanged"}, {"measurement": "T/C ratio, tumor growth", "setting": "4T1 tumors [1]; orthotopic, EVT801 30 mg/kg twice per day, anti-CTLA-4 twice per week, or both", "result": 53, "unit": "%"}, {"measurement": "intratumor infiltrated CD8+ cells", "setting": "4T1 tumors [2]; endpoint, not statistically significant", "result": "globally doubled"}, {"measurement": "T/C ratio, tumor volume", "setting": "4T1 tumors [2]; orthotopic, 2 weeks, EVT801 30 mg/kg twice per day and/or anti-PD-1 twice per week", "result": 43, "unit": "%"}]}
